Results: patent US11571400B2, “ACAT1 inhibitors for treating cancer” (Shanghai Institutes for Biological Sciences, Chinese …, priority 2016, dated 2023)

Key:
OT-I CTLs = assay: CD8+ T-cell (OT-I CTL) cytotoxicity against antigen-pulsed EL-4 cells, LDH release; type: cell-based, mouse; conditions: for cytotoxicity of CD8+ T cells: OT-I CTLs pretreated with compound vs vehicle
Description: To generate mature Cytotoxic T lymphocytes (CTLs), splenocytes isolated from Acat1^CKO-OT-I mice or WT OT-I mice were stimulated with OVA257-264 (N4) for 3 days in the presence of 10 ng/ml IL-2. Cells were centrifuged and cultured in fresh medium containing 10 ng/ml IL-2 for 2 more days, after which most of the cells in the culture were CTLs. To measure CD8^+ T-cell cytotoxicity, EL-4 cells were pulsed with 2 nM antigenic peptide (N4, A2, T4, G4, R4 or Catnb) for 30 minutes. After washing EL-4 cells and CTLs three times with PBS, we mixed CTLs and antigen-pulsed EL-4 cells (1×10^5) in the killing medium (phenol free-RPMI 1640, 2% FBS), at the ratio of 1:1, 1:2 and 1:5, respectively. After 4 hours, the cytotoxic efficiency was measured by quantifying the release of endogenous lactate dehydrogenase (LDH) from EL-4 cells using a CytoTox 96 Non-Radioactive Cytotoxicity kit (Promega).
(§1) CD8^+ T cells were pretreated with vehicle (dimethylsulfoxide, DMSO), CP-113,818 or K604. Then the cells were stimulated with 5 μg ml^−1 plate-bound anti-CD3/CD28, and cytokine and cytolytic granule production was studied. Cytotoxicity of OT-I CTLs pretreated with CP-113,818 or K604 or vehicle was also studied.
To study ACAT1 inhibitors in cancer immunotherapies in mice, melanoma-bearing mice were treated with a potent ACAT-1 inhibitor, avasimibe (Ava), or DMSO control, and tumour size and survival were studied. A combined therapy (avasimibe and anti-PD-1) or monotherapies (avasimibe or anti-PD-1) were also studied and compared in treating melanoma. In a lung cancer model, Lewis lung carcinoma-bearing mice were treated with avasimibe or DMSO control, and tumour multiplicity and survival were studied. Cytokine productions of stimulated human (h) CD8^+ T cells pretreated with avasimibe, CP-113,818, or DMSO. CTL cytotoxicity after avasimibe treatment was measured by the LDH assay. OT-I CTLs were pretreated with avasimibe or vehicle for 6 h and then incubated with EL-4 cells pulsed with OVA257-264 peptide for 4 h.

CD8+ T cells = assay: Cytokine and cytolytic granule production of CD8+ T cells stimulated with plate-bound anti-CD3/CD28; type: cell-based, mouse; conditions: pretreated with compound vs vehicle (DMSO); stimulated with 5 μg/ml plate-bound anti-CD3/CD28
Description: Peripheral T cells were isolated from mouse spleen and draining lymph nodes by a CD8^+ or CD4^+ T cell negative selection kit (Stem cell). To analyse the tumour-infiltrating T cells, tumours were first digested by collagenase IV (sigma), and tumour-infiltrating leukocytes were isolated by 40-70% percoll (GE) gradient centrifugation. To measure the effector function of CD8^+ T cells, the isolated cells were first stimulated with 1 μM ionomycin and 50 ng/ml PMA for 4 hours in the presence of 5 μg/ml BFA, and then stained with PERCP-α-CD8a. Next, cells were fixed with 4% PFA and stained with FITC-α-Granzyme B, APC-α-IFNγ and PE-α-TNFα. In general, to gate the cytokine or granule producing cells, T cells without stimulation or stained with isotype control antibody were used as negative controls. This gating strategy is applicable for most of the flow cytometric analyses. To detect the MDSCs (myeloid-derived suppressor cells) in the tumour, the percoll isolated leukocyte were stained with α-CD45, α-CD11b and α-Ly6G (Gr1), the CD45^+ population was gated, after which the MDSC population (CD11b^+ Gr1^+) in CD45^+ were gated.
as §1

human CD8+ T cells = assay: Human CD8+ T-cell cytokine production; type: cell-based; conditions: PBMCs pretreated 12 hours, then plate-bound α-CD3/α-CD28 for 24 hours; vs DMSO
Description: Human peripheral blood mononuclear cells (PBMCs) from healthy donators were stimulated with 5 μg/ml PHA (Sigma) for 2 days and then rested for 1 day. Cells were pretreated with vehicle (DMSO), CP113, 818 or avasimibe for 12 hours and then stimulated with plate-bound α-CD3 (5 μg/ml) and α-CD28 (5 μg/ml) antibodies for 24 hours. Intracellular staining and flow cytometry were used to assess cytokines production of CD8^+ T cells. […] A combined therapy (avasimibe and anti-PD-1) or monotherapies (avasimibe or anti-PD-1) were also studied and compared in treating melanoma. In a lung cancer model, Lewis lung carcinoma-bearing mice were treated with avasimibe or DMSO control, and tumour multiplicity and survival were studied. […] CTL cytotoxicity after avasimibe treatment was measured by the LDH assay. OT-I CTLs were pretreated with avasimibe or vehicle for 6 h and then incubated with EL-4 cells pulsed with OVA257-264 peptide for 4 h.

B16F10 melanoma = assay: Skin melanoma mouse model (B16F10), avasimibe therapy; type: in vivo; conditions: melanoma-bearing mice; avasimibe 15 mg/kg intraperitoneally every 2 days from Day 10, vs DMSO control
Description: (§2) A combined therapy (avasimibe and anti-PD-1) or monotherapies (avasimibe or anti-PD-1) were also studied and compared in treating melanoma. In a lung cancer model, Lewis lung carcinoma-bearing mice were treated with avasimibe or DMSO control, and tumour multiplicity and survival were studied. […] CTL cytotoxicity after avasimibe treatment was measured by the LDH assay. OT-I CTLs were pretreated with avasimibe or vehicle for 6 h and then incubated with EL-4 cells pulsed with OVA257-264 peptide for 4 h.

[1] = cited from earlier work
[2] = test system: Lewis lung carcinoma (LLC); assay: Lewis lung carcinoma (LLC) model, avasimibe therapy; type: in vivo, mouse; conditions: avasimibe 15 mg/kg intraperitoneally every 3 days, Day 10 to Day 35, vs DMSO control
Description: as §2

SMILES: CCCCCCCC[C@H](SCCCCCC)C(=O)Nc1c(SC)cc(C)nc1SC [CP-113,818, (S)—N-(2,4-Bis(methylthio)-6-methylpyridin-3-yl)-2-(hexylthio)decanoic acid amide]
- cytotoxicity of CD8+ T cells (OT-I CTLs): augmented
- cytolytic granule and cytokine productions of CD8+ T cells (CD8+ T cells): augmented

SMILES: CSc1cc(C)nc(SC)c1NC(=O)CN1CCN(CCSc2nc3ccccc3[nH]2)CC1 [K604, 2-[4-[2-(benzimidazol-2-ylthio)ethyl]piperazin-1yl]-N-[2,4-bis(methylthio)-6-methyl-3-pyridyl]acetamide]
- cytotoxicity of CD8+ T cells (OT-I CTLs): augmented
- cytolytic granule and cytokine productions of CD8+ T cells (CD8+ T cells): augmented

SMILES: CC[C@H](C)C(=O)O[C@H]1C[C@@H](C)C=C2C=C[C@H](C)[C@H](CC[C@@H]3C[C@@H](O)CC(=O)O3)[C@H]21 [Lovastatin]
- cytolytic granule and cytokine productions of CD8+ T cells (CD8+ T cells): significantly decreased

SMILES: CCN(CC)CCO[C@H]1CC[C@@]2(C)C(=CC[C@@H]3[C@@H]2CC[C@]2(C)C(=O)CC[C@@H]32)C1 [U18666A]
- cytolytic granule and cytokine productions of CD8+ T cells (CD8+ T cells): significantly decreased

SMILES: CC(C)c1cc(C(C)C)c(CC(=O)NS(=O)(=O)Oc2c(C(C)C)cccc2C(C)C)c(C(C)C)c1 [avasimibe, [2,6-di(propan-2-yl)phenyl] N-[2-[2,4,6-tri(propan-2-yl)phenyl]acetyl]sulfamate]
- effector function of mouse CD8+ T cells ex vivo (OT-I CTLs; OT-I CTLs pretreated with avasimibe or vehicle for 6 h, EL-4 cells pulsed with OVA257-264 for 4 h, LDH assay): enhance
- cytokine production of human CD8+ T cells (human CD8+ T cells): enhanced
- survival time (B16F10 melanoma): prolonged
- tumour growth (B16F10 melanoma): inhibited
- well tolerated dose ([1]; adult human subjects, four times daily (i.e., 3000 mg/day), Kharbanda et al (2005)): ≥ 750 mg
- human safety profile ([1]; clinical trials for treating atherosclerosis): good human safety profile
- antitumor effect in Lewis lung carcinoma (tumour multiplicity and survival) [2]: good antitumor effect
